Assay results from PubChem BioAssay (NCI).
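Grown in 96-well plates, cells were treated for 48 hours with each compound at five concentrations. Insufficient inhibition: endpoint recorded as highest concentration tested. The concentration for full growth arrest is given as TGI.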

Tests used:
Assay in all cases: growth of human tumour cells (NCI), 48 h
ACHN renal = test system: ACHN renal
EKVX NSCLC = test system: EKVX NSCLC
HOP-62 NSCLC = test system: HOP-62 NSCLC
LOX IMVI melanoma = test system: LOX IMVI melanoma
OVCAR-4 ovarian = test system: OVCAR-4 ovarian
RPMI-8226 leukemia = test system: RPMI-8226 leukemia
SK-MEL-5 melanoma = test system: SK-MEL-5 melanoma
SN12C renal = test system: SN12C renal
SNB-19 CNS = test system: SNB-19 CNS
SW-620 colon = test system: SW-620 colon
UACC-62 melanoma = test system: UACC-62 melanoma
OVCAR-3 ovarian = test system: OVCAR-3 ovarian

Row | Compound | TGI (ACHN renal) | TGI (EKVX NSCLC) | TGI (HOP-62 NSCLC) | TGI (LOX IMVI melanoma) | TGI (OVCAR-4 ovarian) | TGI (RPMI-8226 leukemia) | TGI (SK-MEL-5 melanoma) | TGI (SN12C renal) | TGI (SNB-19 CNS) | TGI (SW-620 colon) | TGI (UACC-62 melanoma) | TGI (OVCAR-3 ovarian)
1 | CCCCCCCc1cscc1-c1cscc1Br | > 100 µM | > 100 µM | > 100 µM | 36.4 µM | > 100 µM | 47 µM | > 100 µM | > 100 µM | > 100 µM | > 100 µM | > 100 µM | 
2 | Cc1ccc(S(=O)(=O)ON2C(=O)c3c(N)c(C#N)c(-c4ccccc4)c(-c4ccccc4)c3C2=O)cc1 | 31.1 µM | 29.1 µM |  | 31.1 µM | 52.4 µM | 89.6 µM | 40.6 µM | 40 µM | > 100 µM | 30.8 µM | 33.7 µM | 27.2 µM
3 | CC(C)COP(C)(=O)C(N)(C(F)(F)F)C(F)(F)F (centres undefined) | > 100 µM | > 100 µM | > 100 µM | > 100 µM | > 100 µM | > 100 µM | > 100 µM | > 100 µM |  | > 100 µM | > 100 µM | > 100 µM
4 | Fc1cccc(C2SCc3nc4cc5ccccc5cc4n32)c1 (centres undefined) | > 100 µM | > 100 µM | > 100 µM | > 100 µM | > 100 µM | > 100 µM |  | > 100 µM | > 100 µM | > 100 µM | > 100 µM | > 100 µM
5 | CCOC(=O)Nc1n[nH]nc1Cl |  | > 100 µM | > 100 µM | > 100 µM | > 100 µM | > 100 µM | > 100 µM | > 100 µM |  | > 100 µM | > 100 µM | > 100 µM
